According to patent US9481676B2, “Azepino[4,5-B]indoles and methods of use” (Medivation Technologies, Inc., priority 2008, dated 2016):

Assays:
[1] = target: T1, human recombinant dopamine D2L receptor (Homo sapiens, UniProt P14416); test: Dopamine D2L radioligand binding ([3H]Spiperone); conditions: compound at 1 μM; read-out: Dopamine (1 μM) D2L, percent inhibition of specific binding
T1 construct: expressed in transfected cells; host or cells: CHO cells
Procedure, shortened: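 Binding measured by filtration and counting, reported as % inhibition of specific [3H]spiperone binding (0.16 nM tracer; 10 μM haloperidol for nonspecific). Compounds tested at ≤1 μM in 1% DMSO for 120 min at 25° C against CHO-expressed human D2L in pH 7.4 Tris-HCl buffer.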

[2] = target: T2, human recombinant adrenergic α2A receptor (Homo sapiens, UniProt P08913); test: Adrenergic alpha2A radioligand binding ([3H]MK-912); conditions: compound at 1 μM; read-out: Adrenergic (1 μM) α2A, percent inhibition of specific binding
T2 construct: expressed in transfected cells; host or cells: insect Sf9 cells
T2 sequence (P08913 1-465): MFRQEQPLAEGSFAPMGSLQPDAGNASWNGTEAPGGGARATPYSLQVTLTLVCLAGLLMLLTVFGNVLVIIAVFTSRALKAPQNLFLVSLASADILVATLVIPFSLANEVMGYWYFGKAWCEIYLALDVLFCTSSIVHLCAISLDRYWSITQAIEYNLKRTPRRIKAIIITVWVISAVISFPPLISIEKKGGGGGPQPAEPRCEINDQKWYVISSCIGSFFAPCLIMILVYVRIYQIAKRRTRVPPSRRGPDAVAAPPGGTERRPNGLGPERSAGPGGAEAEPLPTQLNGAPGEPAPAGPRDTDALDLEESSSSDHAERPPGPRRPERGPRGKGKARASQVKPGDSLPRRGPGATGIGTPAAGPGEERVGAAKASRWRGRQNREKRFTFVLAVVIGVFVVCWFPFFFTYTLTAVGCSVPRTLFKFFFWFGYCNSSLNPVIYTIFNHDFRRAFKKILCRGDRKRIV
Procedure, shortened: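 Membranes of Sf9 cells expressing human recombinant α2A receptor were incubated with compound and 1 nM [3H]MK-912 for 60 min at 25 °C in 50 mM Tris-HCl pH 7.4, 12.5 mM MgCl2, 2 mM EDTA. Nonspecific binding: 10 μM WB-4101.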

[3] = target: T3, human recombinant serotonin (5-Hydroxytryptamine) 5-HT6 receptor (Homo sapiens, UniProt P50406); test: Serotonin 5-HT6 radioligand binding ([3H]LSD); conditions: compound at 1 μM; read-out: Serotonin (1 μM) 5-HT6, percent inhibition of specific binding
T3 construct: expressed in transfected cells; host or cells: human HeLa cells
Procedure, shortened: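 Human recombinant 5-HT6 receptor from HeLa cells incubated with 1.5 nM [3H]LSD for 120 min at 37° C in 50 mM Tris-HCl pH 7.4, 150 mM NaCl, 2 mM ascorbic acid, 0.001% BSA. Nonspecific binding defined with 5 μM serotonin; bound ligand counted after filtration.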

[4] = target: T4, human recombinant serotonin (5-Hydroxytryptamine) 5-HT2C receptor (Homo sapiens, UniProt P28335); test: Serotonin 5-HT2C radioligand binding ([3H]Mesulergine); conditions: compound at 1 μM; read-out: Serotonin (1 μM) 5-HT2C, percent inhibition of specific binding
T4 construct: expressed in transfected cells; host or cells: CHO-K1 cells
T4 sequence (P28335 33-458): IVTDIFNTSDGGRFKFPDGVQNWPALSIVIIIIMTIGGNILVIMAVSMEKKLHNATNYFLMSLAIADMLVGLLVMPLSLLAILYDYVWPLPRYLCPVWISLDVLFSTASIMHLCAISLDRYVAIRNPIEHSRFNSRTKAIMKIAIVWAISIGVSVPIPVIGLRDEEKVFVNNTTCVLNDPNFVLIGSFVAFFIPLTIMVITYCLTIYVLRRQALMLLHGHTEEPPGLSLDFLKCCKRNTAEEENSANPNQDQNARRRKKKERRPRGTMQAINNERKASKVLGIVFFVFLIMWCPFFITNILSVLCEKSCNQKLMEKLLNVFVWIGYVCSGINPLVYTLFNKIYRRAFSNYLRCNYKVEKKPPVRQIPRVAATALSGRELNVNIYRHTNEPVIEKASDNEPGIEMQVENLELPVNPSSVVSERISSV
Procedure, shortened: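 Membranes from CHO-K1 cells expressing human 5-HT2C, incubated with 1 nM [3H]mesulergine for 60 min at 25 °C in 50 mM Tris-HCl pH 7.4 with ascorbic acid and pargyline.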

T3 sequence (P50406 whole entry): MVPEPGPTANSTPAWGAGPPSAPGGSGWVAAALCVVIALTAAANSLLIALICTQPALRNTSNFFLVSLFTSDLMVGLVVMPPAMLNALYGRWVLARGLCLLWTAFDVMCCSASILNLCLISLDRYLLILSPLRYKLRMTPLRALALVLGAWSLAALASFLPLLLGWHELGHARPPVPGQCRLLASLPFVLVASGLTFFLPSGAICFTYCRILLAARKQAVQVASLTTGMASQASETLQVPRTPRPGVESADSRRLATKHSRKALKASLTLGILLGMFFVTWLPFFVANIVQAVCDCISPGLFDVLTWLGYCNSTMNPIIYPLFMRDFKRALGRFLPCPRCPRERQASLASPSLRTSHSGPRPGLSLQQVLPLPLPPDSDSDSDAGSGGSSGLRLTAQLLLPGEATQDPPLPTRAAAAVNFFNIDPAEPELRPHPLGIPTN
T1 sequence (P14416 whole entry): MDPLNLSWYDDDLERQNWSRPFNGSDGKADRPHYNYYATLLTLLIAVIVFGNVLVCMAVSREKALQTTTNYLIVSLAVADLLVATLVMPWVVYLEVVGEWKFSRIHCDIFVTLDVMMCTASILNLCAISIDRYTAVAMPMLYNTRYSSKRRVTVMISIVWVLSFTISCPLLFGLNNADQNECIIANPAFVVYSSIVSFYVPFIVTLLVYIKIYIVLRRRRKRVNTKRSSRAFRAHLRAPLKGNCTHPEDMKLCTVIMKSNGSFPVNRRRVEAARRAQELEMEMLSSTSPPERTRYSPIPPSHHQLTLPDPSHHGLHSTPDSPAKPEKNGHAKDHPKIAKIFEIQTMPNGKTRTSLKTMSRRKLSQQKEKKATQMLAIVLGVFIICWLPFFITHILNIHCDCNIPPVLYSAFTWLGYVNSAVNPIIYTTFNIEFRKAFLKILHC

Structure (SMILES) | inhibition at 1 µM [1] | inhibition at 1 µM [2] | inhibition at 1 µM [3] | inhibition at 1 µM [4]
CN1CCc2c(n(CCc3ccccc3F)c3ccc(Cl)cc23)CC1 [Compound No. 61, 6-(2-fluorophenethyl)-9-chloro-1,2,3,4,5,6-hexahydro-3-methylazepino[4,5-b]indole] | 1% | 23% | 5% | 89%
Cc1ccc2c(c1)c1c(n2CCc2ccccc2)CCN(C)CC1 [Compound No. 62, 1,2,3,4,5,6-hexahydro-3,9-dimethyl-6-phenethylazepino[4,5-b]indole] | 7% | 11% | -4% | 101%
Cc1ccc2c(c1)c1c(n2CCc2ccccc2F)CCN(C)CC1 [Compound No. 63, 6-(2-fluorophenethyl)-1,2,3,4,5,6-hexahydro-3,9-dimethylazepino[4,5-b]indole] | 61% | 96% | 101% | 5%
COc1ccc(C(O)Cn2c3c(c4cc(Cl)ccc42)CCN(C)CC3)cc1F (stereo not drawn) [Compound No. 67, 2-(9-chloro-2,3,4,5-tetrahydro-3-methylazepino[4,5-b]indol-6(1H)-yl)-1-(3-fluoro-4-methoxyphenyl) ethanol] | 50% | 102% | 86% | 93%
COc1ccc(C(O)Cn2c3c(c4cc(C)ccc42)CCN(C)CC3)cc1F (stereo not drawn) [Compound No. 68, 1-(3-fluoro-4-methoxyphenyl)-2-(2,3,4,5-tetrahydro-3,9-dimethylazepino[4,5-b]indol-6(1H)-yl)ethanol] | 40% | 99% | 87% | 95%
Cc1ccc2c(c1)c1c(n2CCc2ccccc2Cl)CCN(C)CC1 [Compound No. 69, 6-(2-chlorophenethyl)-1,2,3,4,5,6-hexahydro-3,9-dimethylazepino[4,5-b]indole] | -2% | 8% | -4% | -1%
CN1CCc2c(n(CC(=O)N3CCNCC3)c3ccc(Cl)cc23)CC1 [Compound No. 72, 2-(9-chloro-2,3,4,5-tetrahydro-3-methylazepino[4,5-b]indol-6(1H)-yl)-1-(piperazin-1-yl)ethanone] | -18% | -6% | 39% | 53%
CN1CCc2c(n(CC(=O)Nc3ccccc3)c3ccc(Cl)cc23)CC1 [Compound No. 73, 2-(9-chloro-2,3,4,5-tetrahydro-3-methylazepino[4,5-b]indol-6(1H)-yl)-N-phenylacetamide] | -14% | 28% | 0% | 11%
CN1CCc2c(n(CC(=O)N(C)C3CCCCC3)c3ccc(Cl)cc23)CC1 [Compound No. 74, 2-(9-chloro-2,3,4,5-tetrahydro-3-methylazepino[4,5-b]indol-6(1H)-yl)-N-cyclohexyl-N-methylacetamide] | -2% | 19% | -4% | 1%
CN1CCc2c(n(CC(=O)OCc3ccccc3)c3ccc(Cl)cc23)CC1 [Compound No. 75, Benzyl-2-(9-chloro-2,3,4,5-tetrahydro-3-methylazepino[4,5-b]indol-6(1H)-yl)acetate] | 2% | 7% | -2% | 13%
Cc1ccc2c(c1)c1c(n2/C=C/c2ccccc2)CCN(C)CC1 [Compound No. 229, (E)-3,9-dimethyl-6-styryl-1,2,3,4,5,6-hexahydroazepino[4,5-b]indole] | 68% | 100% | 102% | 98%
COc1ccc(/C=C/n2c3c(c4cc(C)ccc42)CCN(C)CC3)c(F)c1 [Compound No. 230, (E)-6-(2-fluoro-4-methoxystyryl)-3,9-dimethyl-1,2,3,4,5,6-hexahydroazepino[4,5-b]indole] | 48% | 102% | 100% | 96%
Cc1ccc2c(c1)c1c(n2CC(=O)N(C)C2CCCCC2)CCN(C)CC1 [Compound No. 232, N-cyclohexyl-2-(3,9-dimethyl-2,3,4,5-tetrahydroazepino[4,5-b]indol-6(1H)-yl)-N-methylacetamide] | 8% | 90% | 20% | 93%
Cc1ccc2c(c1)c1c(n2/C=C/c2ccccc2F)CCN(C)CC1 [Compound No. 233, (E)-6-(2-fluorostyryl)-3,9-dimethyl-1,2,3,4,5,6-hexahydroazepino[4,5-b]indole] | 73% | 97% | 103% | 100%
CN1CCc2c(n(/C=C/c3ccc(F)cc3)c3ccc(Cl)cc23)CC1 [Compound No. 234, (E)-9-chloro-6-(4-fluorostyryl)-3-methyl-1,2,3,4,5,6-hexahydroazepino[4,5-b]indole] | 71% | 98% | 103% | 98%
Cc1ccc2c(c1)c1c(n2/C=C/c2ccc(Cl)cc2)CCN(C)CC1 [Compound No. 235, (E)-6-(4-chlorostyryl)-3,9-dimethyl-1,2,3,4,5,6-hexahydroazepino[4,5-b]indole] | 42% | 95% | 97% | 98%
CN1CCc2c(n(/C=C/c3ccc(F)c(F)c3)c3ccc(Cl)cc23)CC1 [Compound No. 236, (E)-9-chloro-6-(3,4-difluorostyryl)-3-methyl-1,2,3,4,5,6-hexahydroazepino[4,5-b]indole] | 34% | 89% | 102% | 100%
CN1CCc2c(n(CCc3ccccc3F)c3ccccc23)CC1 [Compound No. 237, 6-(2-fluorophenethyl)-3-methyl-1,2,3,4,5,6-hexahydroazepino[4,5-b]indole] | 50% | 98% | 103% | 100%
C/C(=C\n1c2c(c3cc(C)ccc31)CCN(C)CC2)c1ccc(Cl)cc1Cl [Compound No. 238, (E)-6-(2-(2,4-dichlorophenyl)prop-1-enyl)-3,9-dimethyl-1,2,3,4,5,6-hexahydroazepino[4,5-b]indole] | 7% | 98% | 86% | 100%
C/C(=C\n1c2c(c3cc(Cl)ccc31)CCN(C)CC2)c1ccc(Cl)cc1Cl [Compound No. 239, (E)-9-chloro-6-(2-(2,4-dichlorophenyl)prop-1-enyl)-3-methyl-1,2,3,4,5,6-hexahydroazepino[4,5-b]indole] | 9% | 93% | 59% | 97%
CN1CCc2c(n(C#Cc3ccc(F)cc3)c3ccc(Cl)cc23)CC1 [Compound No. 281, 9-chloro-6-((4-fluorophenyl)ethynyl)-3-methyl-1,2,3,4,5,6-hexahydroazepino[4,5-b]indole] | 40% | 92% | 97% | 98%
